Source: article PMC7888603 (PLoS Pathogens, 2021)
“Also recorded” adds a separate entry of the source. Where two headings read alike, the source gives them in different places.

Experiments:
in vitro = conditions: human
pseudotyped WT-EBOV [1] = experiment: microbe, parasite or virus in culture; format: cell-based, Ebola virus
EBOV GP = conditions: cited from earlier work
pseudotyped WT-MARV [2] = experiment: microbe, parasite or virus in culture; format: cell-based, Marburg virus; conditions: for IC50: Human immunodeficiency virus 1, A549, read-out: IC50 (µM) (MARV)
pseudotyped WT-EBOV [3] = experiment: microbe, parasite or virus in culture; format: cell-based, Ebola virus; conditions: Zaire ebolavirus, read-out: EBOV Inhibition (%)
[4] = tested on: pseudotyped vesicular stomatitis virus (VSV); format: cell-based
EBOV HR2 peptide ([…]) = EBOV HR2 peptide ([…]) (Zaire ebolavirus, UniProt Q05320); format: binding, Ebola virus; conditions: pH 5.2
[5] = tested on: pseudotyped influenza H5N1; format: cell-based
pseudotyped WT-MARV [6] = experiment: organism not typed; format: cell-based, Marburg virus; conditions: read-out: MARV Inhibition (%)
[7] = tested on: lysotracker red accumulation in lysosomes, A549 cells; experiment: cells; format: cell-based, Human; conditions: for IC50: Homo sapiens, A549, read-out: IC50, inhibition of lysotracker red accumulation in lysosomes
RAVN GPΔmucin = RAVN GPΔmucin (Lake Victoria marburgvirus, UniProt Q1PDC7); conditions: 200 µM
Ebola = conditions: cited from earlier work
lysosomes = conditions: cited from earlier work
[8] = Zaire ebolavirus, A549, read-out: IC50 (µM) (EBOV)

Work on CN1[C@@H]2CC[C@H]1C[C@@H](OC(c1ccccc1)c1ccccc1)C2 [Benztropine] yielded a CC50 (in vitro) of 52.9 ± 6.1 µM.
In the case of CC(C)COCC(CN(Cc1ccccc1)c1ccccc1)N1CCCC1 (stereo not drawn) [Bepridil], the CC50 (in vitro) is listed as 34.7 ± 4.6 µM, the IC50 (pseudotyped WT-EBOV [1]; [8]) is listed as 1.6 ± 0.8 µM and the Kd (EBOV GP) is listed as 290 µM. The IC50 (pseudotyped WT-MARV [2]) was 10 ± 2 µM.
CCCCOc1cc(C(=O)NCCN(CC)CC)c2ccccc2n1 [Dibucaine] showed a CC50 (in vitro) of 67.1 ± 8 µM, an IC50 (pseudotyped WT-EBOV [1]; [8]) of 3.2 ± 0.2 µM and an IC50 (pseudotyped WT-MARV [2]) of 6 ± 2 µM.
With CNCCC(Oc1ccc(C(F)(F)F)cc1)c1ccccc1 (stereo not drawn) [Fluoxetine] the CC50 (in vitro) was 28.7 ± 0.1 µM, the inhibition at 0.625 µM (pseudotyped WT-EBOV [3]) was 6.94% and the inhibition at 1.25 µM (pseudotyped WT-EBOV [3]) was 21.4%. For the same molecule, the inhibition at 2.5 µM (pseudotyped WT-EBOV [3]) was 44.8%, the inhibition at 5 µM (pseudotyped WT-EBOV [3]) was 55.7% and the inhibition at 10 µM (pseudotyped WT-EBOV [3]) was 79.2%. The “inhibition of pseudotyped vesicular stomatitis virus (VSV)” value [4] was “no inhibition”, the “binding to EBOV HR2 peptide (NOESY)” value (EBOV HR2 peptide ([…])) was “intermolecular NOEs, highlighted by red arrows, are observed” and the “inhibition of pseudotyped influenza H5N1” value [5] was “no inhibition”. For the same molecule, the inhibition at 0.625 µM (pseudotyped WT-MARV [6]) was 35.7%, the inhibition at 1.25 µM (pseudotyped WT-MARV [6]) was 46.4% and the inhibition at 2.5 µM (pseudotyped WT-MARV [6]) was 62%. The inhibition at 5 µM (pseudotyped WT-MARV [6]) was 74.4% and the inhibition at 10 µM (pseudotyped WT-MARV [6]) was 88.8%.
For CN(C)CCCN1c2ccccc2CCc2ccccc21 [Imipramine], the CC50 (in vitro) is listed as 76.3 ± 7.4 µM, the IC50 (pseudotyped WT-EBOV [1]; [8]) is listed as 2.6 ± 0.1 µM and the Kd (EBOV GP) is listed as 584 µM. It also gave an IC50 (pseudotyped WT-MARV [2]) of 6.4 ± 0.6 µM.
Molecule CC(=O)N[C@@H](CC(C)C)C(=O)N[C@@H](CC(C)C)C(=O)N[C@H](C=O)CCCNC(=N)N [Leupeptin] has a CC50 (in vitro) of over 100 µM, an IC50 (pseudotyped WT-EBOV [1]; [8]) of 0.35 ± 0.07 µM and an IC50 (pseudotyped WT-MARV [2]) of 0.6 ± 0.1 µM.
For OCCOc1ccc(/C(=C(/CCCl)c2ccccc2)c2ccccc2)cc1 [Ospemifene], the CC50 (in vitro; CC50 (µM)) was 56 µM, the IC50 (pseudotyped WT-EBOV [1]; [8]) was 19 ± 10 µM and the lysosome trapping [7] was “no trapping at any concentration; also recorded: no effect”. For the same molecule, the “decrease in Tm of MARV (RAVN) GP” value (RAVN GPΔmucin) was 2 °C, the CC50 (A549 cells; human) was 57 µM and the “loss of potency for MARV” value (pseudotyped WT-MARV [2]) was 35 fold. It also gave an IC50 (pseudotyped WT-MARV [2]) of 35 ± 3 µM.
In the case of Fc1ccc([C@@H]2CCNC[C@H]2COc2ccc3c(c2)OCO3)cc1 [Paroxetine], the CC50 (in vitro) is listed as 23.1 ± 6.3 µM, the IC50 (pseudotyped WT-EBOV [1]; [8]) is listed as 0.34 ± 0.05 µM and the Kd (EBOV GP) is listed as 650 µM. For the same molecule, the IC50 (pseudotyped WT-MARV [2]) was 3.1 ± 0.1 µM.
For CN[C@H]1CC[C@@H](c2ccc(Cl)c(Cl)c2)c2ccccc21 [Sertraline], the CC50 (in vitro) was 22.6 ± 6.2 µM.
CN(C)CCOc1ccc(/C(=C(/CCCl)c2ccccc2)c2ccccc2)cc1 [Toremifene] gave a CC50 (in vitro) of 26.9 ± 2.4 µM, an inhibition at 0.0312 µM (pseudotyped WT-EBOV [3]) of 5.93% and an inhibition at 0.0625 µM (pseudotyped WT-EBOV [3]) of 21.8%. It also gave an inhibition at 0.125 µM (pseudotyped WT-EBOV [3]) of 41.2%, an inhibition at 0.25 µM (pseudotyped WT-EBOV [3]) of 66.6% and an inhibition at 0.5 µM (pseudotyped WT-EBOV [3]) of 88.5%. The IC50 (pseudotyped WT-EBOV [1]; [8]) was 0.021 ± 0.009 µM, the IC50 (pseudotyped WT-EBOV [1]; Zaire ebolavirus, A549, read-out: Toremifene IC50 (µM)) was 0.01 µM and the “inhibition of pseudotyped vesicular stomatitis virus (VSV)” value [4] was “no inhibition”. For the same molecule, the IC50 [7] was 9.7 µM, the “decrease in Tm of MARV (RAVN) GP” value (RAVN GPΔmucin) was ~ 5 °C and the “Toremifene at 10 µM (% Infection)” value (pseudotyped WT-MARV [2]) was 3%. It also gave an IC50 (pseudotyped WT-MARV [2]) of 1.6 ± 0.6 µM, an inhibition at 0.625 µM (pseudotyped WT-MARV [6]) of -3.12% and an inhibition at 1.25 µM (pseudotyped WT-MARV [6]) of -0.5%. It also gave an inhibition at 2.5 µM (pseudotyped WT-MARV [6]) of 23.1%, an inhibition at 5 µM (pseudotyped WT-MARV [6]) of 71.2% and an inhibition at 10 µM (pseudotyped WT-MARV [6]) of 99%.
CCN(CC)CCCC(C)Nc1ccnc2cc(Cl)ccc12 (stereo not drawn) [chloroquine] gave an IC50 [7] of 3.3 µM.
In the case of CNCCCN1c2ccccc2CCc2ccccc21 [desipramine], the “Ebola entry inhibition in screen of FDA approved drugs” value (Ebola) is listed as “not Ebola entry inhibitors” and the accumulation in lysosomes (lysosomes) is listed as “accumulate in lysosomes”.
In the case of CC(C)NCC(O)COc1cccc2ccccc12 (stereo not drawn) [propranolol], the “Ebola entry inhibition in screen of FDA approved drugs” value (Ebola) is listed as “not Ebola entry inhibitors” and the accumulation in lysosomes (lysosomes) is listed as “accumulate in lysosomes”.
Work on CA-074 yielded an IC50 (pseudotyped WT-EBOV [1]; read-out: IC50 (µM) (EBOV)) of 32 ± 8 µM and a CC50 (A549 cells) of over 100 µM.
